Measured values published in patent US10208019B2, “GLP-1 receptor agonists and uses thereof” (Pfizer Inc., priority 2016, dated 2019).

Columns and labels:
human GLP-1R [1] = biological target: human GLP-1R (Homo sapiens, UniProt P43220, G168S); assay: CHO GLP-1R Clone H6—Assay 1: HTRF cAMP cell-based functional agonist assay (high GLP-1R density); settings: for Assay 1 Emax (%): CHO GLP-1R Clone H6; for Assay 1 Emax (%) / Emax: relative to saturating concentration of full agonist GLP-1 (1 μM), arithmetic mean; for EC50: read-out: Assay 1 EC50, CHO GLP-1R Clone H6, cAMP HTRF, geometric mean; for Emax: read-out: Assay 1 Emax (%), CHO GLP-1R Clone H6
human GLP-1R [2] = biological target: human GLP-1R (Homo sapiens (Human), UniProt P43220, L260F); assay: CHO GLP-1R Clone C6—Assay 2: HTRF cAMP cell-based functional agonist assay (low GLP-1R density); settings: for EC50: CHO GLP-1R Clone C6, cAMP HTRF, geometric mean; for Assay 2 Emax (%) / Emax: CHO GLP-1R Clone C6, relative to saturating concentration of full agonist GLP-1 (1 μM), arithmetic mean; for Emax: read-out: Assay 2 Emax (%)
Chain of human GLP-1R (Homo sapiens (Human), UniProt P43220, L260F) (P43220 24-463 L260F): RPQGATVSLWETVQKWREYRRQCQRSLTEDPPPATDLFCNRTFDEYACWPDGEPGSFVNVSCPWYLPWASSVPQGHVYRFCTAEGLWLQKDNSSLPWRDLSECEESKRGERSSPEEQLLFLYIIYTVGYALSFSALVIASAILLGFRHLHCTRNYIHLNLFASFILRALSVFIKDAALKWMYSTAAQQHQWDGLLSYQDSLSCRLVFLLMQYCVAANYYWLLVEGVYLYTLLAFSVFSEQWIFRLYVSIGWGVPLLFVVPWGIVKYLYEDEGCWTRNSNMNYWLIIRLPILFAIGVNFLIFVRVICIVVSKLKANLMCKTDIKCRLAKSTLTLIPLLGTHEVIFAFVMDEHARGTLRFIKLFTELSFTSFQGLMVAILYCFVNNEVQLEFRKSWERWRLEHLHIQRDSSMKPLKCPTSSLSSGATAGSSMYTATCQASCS
Protocol: GLP-1R-mediated agonist activity was determined with a cell-based functional assay utilizing an HTRF (Homogeneous Time-Resolved Fluorescence) cAMP detection kit (cAMP HI Range Assay Kit; Cis Bio cat #62AM6PEJ) that measures cAMP levels in the cell. The method is a competitive immunoassay between native cAMP produced by the cells and exogenous cAMP labeled with the dye d2. The tracer binding is visualized by a mAb anti-cAMP labeled with Cryptate. The specific signal (i.e. energy transfer) is inversely proportional to the concentration of cAMP in either a standard or an experimental sample.
The human GLP-1R coding sequence (NCBI Reference Sequence NP_002053.3, including naturally-occurring variant Leu260Phe) was subcloned into pcDNA5-FRT-TO and a clonal CHO cell line stably expressing a low receptor density was isolated using the Flp-In™ T-Rex™ System, as described by the manufacturer (ThermoFisher).
Cells were removed from cryopreservation, re-suspended in 40 mL of Dulbecco's Phosphate Buffered Saline (DPBS-Lonza Cat #17-512Q) and centrifuged at 800×g for 5 min at 22° C. The DPBS was aspirated, and the cell pellet was re-suspended in 10 mL of complete growth medium (DMEM:F12 1:1 Mixture with HEPES, L-Gln, 500 mL (DMEM/F12 Lonza Cat #12-719F), 10% heat inactivated fetal bovine serum (Gibco Cat #16140-071), 5 mL of 100× Pen-Strep (Gibco Cat #15140-122), 5 mL of 100× L-Glutamine (Gibco Cat #25030-081), 700 μg/mL Hygromycin (Invitrogen Cat #10687010) and 15 μg/mL Blasticidin (Gibco Cat #R21001). A 1 mL sample of the cell suspension in growth media was counted on a Becton Dickinson ViCell to determine cell viability and cell count per mL. The remaining cell suspension was then adjusted with growth media to deliver 1600 viable cells per well using a Matrix Combi Multidrop reagent dispenser, and the cells were dispensed into a white 384 well tissue culture treated assay plate (Corning 3570). The assay plate was then incubated for 48 h at 37° C. in a humidified environment (95% O2, 5% CO2)
Varying concentrations of each compound to be tested (in DMSO) were diluted in assay buffer [HBSS with Calcium/Magnesium (Lonza/BioWhittaker cat #10-527F)/0.1% BSA (Sigma Aldrich cat #A7409-1L)/20 mM HEPES (Lonza/BioWhittaker cat #17-737E)] containing 100 μM 3-isobutyl-1-methylxanthin (IBMX; Sigma cat #15879). The final DMSO concentration in the compound/assay buffer mixture is 1%.
After 48 h, the growth media was removed from the assay plate wells, and the cells were treated with 20 μL of the serially diluted compound in assay buffer for 30 min at 37° C. in a humidified environment (95% O2, 5% CO2). Following the 30 min incubation, 10 μL of labeled d2 cAMP and 10 μL of anti-cAMP antibody (both diluted 1:20 in cell lysis buffer; as described in the manufacturer's assay protocol) were added to each well of the assay plate. The plates were then incubated at room temperature and after 60 minutes, changes in the HTRF signal were read with an Envision 2104 multi-label plate reader using excitation of 330 nm and emissions of 615 and 665 nm. Raw data were converted to nM cAMP by interpolation from a cAMP standard curve (as described in the manufacturer's assay protocol) and the percent effect was determined relative to a saturating concentration of the full agonist GLP-1 (1 μM) included on each plate. EC50 determinations were made from agonist dose response curves analyzed with a curve fitting program using a 4-parameter logistic dose response equation.

Chain of human GLP-1R (Homo sapiens, UniProt P43220, G168S) (P43220 24-463 G168S limits assumed): as the sequence (P43220 24-463 L260F) above, with G145S, F237L counted along it

Compound | Assay 1 Emax (%) (human GLP-1R [1]) | EC50 (human GLP-1R [1]) [nM] | EC50 (human GLP-1R [2]) [nM] | Assay 2 Emax (%) (human GLP-1R [2]) | Emax (human GLP-1R [1]) [%] | Emax (human GLP-1R [2]) [%]
C[C@H]1CN(c2cccc(OCc3ccc(C#N)cc3F)n2)CCN1Cc1nc2ccc(C(=O)O)cc2n1CC1CCCO1 (single isomer, unassigned; diastereomer 1) [Example 14A-11] | 65 | 7 | 140 | 71 |  | 
CCn1cncc1Cn1c(CN2CCC(c3cccc(OCc4ccc(Cl)cc4F)n3)CC2)nc2ccc(C(=O)O)cc21 [Example 10A-02, 2-[(4-{6-[(4-chloro-2-fluorobenzyl)oxy]pyridin-2-yl}piperidin-1-yl)methyl]-1-[(1-ethyl-1H-imidazol-5-yl)methyl]-1H-benzimidazole-6-carboxylic acid] |  | 0.34 | 2.2 |  | 89 | 97
Cc1nnc(Cn2c(CN3CCC(c4cccc(OCc5ccc(Cl)cc5F)n4)CC3)nc3ccc(C(=O)O)cc32)n1C [Example 10A-20] |  | > 15000 | > 20000 |  | 98 | 
C[C@H]1CN(c2cccc(OCc3ccc(C#N)cc3F)n2)CCN1Cc1nc2ccc(C(=O)O)cc2n1Cc1cnco1 [Example 10A-17] |  | 1.8 | 59 |  | 77 | 85
COCCn1c(CN2CCC(c3cccc(OCc4ccc(Cl)cc4F)n3)CC2)nc2ncc(C(=O)O)nc21 [Example 2A-10, 2-[(4-{6-[(4-chloro-2-fluorobenzyl)oxy]pyridin-2-yl}piperidin-1-yl)methyl]-1-(2-methoxyethyl)-1H-imidazo[4,5-b]pyrazine-6-carboxylic acid] |  | 43 | 680 |  | 82 | 110
Cn1cncc1Cn1c(CN2CCN(c3cccc(OCc4ccc(Cl)cc4F)n3)CC2)nc2ccc(C(=O)O)cc21 [Example 10A-36, 2-[(4-{6-[(4-chloro-2-fluorobenzyl)oxy]pyridin-2-yl}piperazin-1-yl)methyl]-1-[(1-methyl-1H-imidazol-5-yl)methyl]-1H-benzimidazole-6-carboxylic acid] |  | 0.33 | 13 |  | 82 | 110
O=C(O)c1ccc2nc(CN3CCN(c4cccc(OCc5ccc(Cl)cc5F)n4)CC3)n(Cc3ncco3)c2c1 [Example 10A-33, 2-[(4-{6-[(4-chloro-2-fluorobenzyl)oxy]pyridin-2-yl}piperazin-1-yl)methyl]-1-(1,3-oxazol-2-ylmethyl)-1H-benzimidazole-6-carboxylic acid] |  | 1.5 | 24 |  | 73 | 91
CCn1cnnc1Cn1c(CN2CCC(c3cccc(OCc4ccc(Cl)cc4F)n3)CC2)nc2ccc(C(=O)O)cc21 [Example 10A-07] |  | 2.8 | 68 |  | 82 | 81
O=C(O)c1ccc2nc(CN3CCN(c4cccc(OCc5ccc(Cl)cc5F)n4)CC3)n(Cc3cnco3)c2c1 [Example 10A-45, 2-[(4-{6-[(4-chloro-2-fluorobenzyl)oxy]pyridin-2-yl}piperazin-1-yl)methyl]-1-(1,3-oxazol-5-ylmethyl)-1H-benzimidazole-6-carboxylic acid] |  | 1 | 19 |  | 76 | 75
COCCn1c(CN2CCC(c3cccc(OCc4ccc(C#N)cc4)n3)CC2)nc2ccc(C(=O)O)c(F)c21 [Example 2A-15, 2-[(4-{6-[(4-cyanobenzyl)oxy]pyridin-2-yl}piperidin-1-yl)methyl]-7-fluoro-1-(2-methoxyethyl)-1H-benzimidazole-6-carboxylic acid] |  | 22 | 280 |  | 87 | 91
COCCn1c(CN2CCC(c3cccc(OCc4ccc(C#N)cc4)n3)CC2)nc2cc(F)c(C(=O)O)cc21 [Example 2A-14, 2-[(4-{6-[(4-cyanobenzyl)oxy]pyridin-2-yl}piperidin-1-yl)methyl]-5-fluoro-1-(2-methoxyethyl)-1H-benzimidazole-6-carboxylic acid] |  | 110 | 3000 |  | 71 | 92
CC[C@H]1CN(c2cccc(OCc3ccc(Cl)cc3F)n2)CCN1Cc1nc2ccc(C(=O)O)cc2n1CCOC [Example 12A-07, 2-{[(2S)-4-{6-[(4-chloro-2-fluorobenzyl)oxy]pyridin-2-yl}-2-ethylpiperazin-1-yl]methyl}-1-(2-methoxyethyl)-1H-benzimidazole-6-carboxylic acid] |  | 37 | 1200 |  | 69 | 83
C[C@H]1CN(c2cccc(OCc3ccc(Cl)cc3F)n2)CCN1Cc1nc2ccc(C(=O)O)cc2n1Cc1ncco1 [Example 10A-18, 2-{[(2S)-4-{6-[(4-chloro-2-fluorobenzyl)oxy]pyridin-2-yl}-2-methylpiperazin-1-yl]methyl}-1-(1,3-oxazol-2-ylmethyl)-1H-benzimidazole-6-carboxylic acid] |  | 1.6 | 33 |  | 78 | 78
COCCn1c(CN2CCC(c3cccc(OCc4ccc(Cl)cc4F)n3)CC2)nc2ccc(C(=O)O)nc21 [Example 2A-17, 2-[(4-{6-[(4-chloro-2-fluorobenzyl)oxy]pyridin-2-yl}piperidin-1-yl)methyl]-3-(2-methoxyethyl)-3H-imidazo[4,5-b]pyridine-5-carboxylic acid] |  | 24 | 1200 |  | 76 | 94
COCCn1c(CN2CCN(c3cccc(OCc4ccc(Cl)cc4F)n3)C[C@@H]2CO)nc2ccc(C(=O)O)cc21 [Example 12A-09] | 79 | 21 | 540 | 80 |  | 
Cn1c(CN2CCC(c3cccc(OCc4ccc(Cl)cc4)n3)CC2)nc2ccc(C(=O)O)cc21 [Example 9A-07, 2-[(4-{6-[(4-chlorobenzyl)oxy]pyridin-2-yl}piperidin-1-yl)methyl]-1-methyl-1H-benzimidazole-6-carboxylic acid] | 78 | 170 | 2100 |  |  | 71
C[C@H]1CN(c2cccc(OCc3ccc(C#N)cc3F)n2)CCN1Cc1nc2ccc(C(=O)O)cc2n1Cc1ncco1 [Example 10A-15, 2-{[(2S)-4-{6-[(4-cyano-2-fluorobenzyl)oxy]pyridin-2-yl}-2-methylpiperazin-1-yl]methyl}-1-(1,3-oxazol-2-ylmethyl)-1H-benzimidazole-6-carboxylic acid] |  | 1.3 | 27 |  | 72 | 87
Cc1noc(CCn2c(CN3CCC(c4cccc(OCc5ccc(Cl)cc5F)n4)CC3)nc3ccc(C(=O)O)cc32)n1 [Example 11A-29, 2-[(4-{6-[(4-chloro-2-fluorobenzyl)oxy]pyridin-2-yl}piperidin-1-yl)methyl]-1-[2-(3-methyl-1,2,4-oxadiazol-5-yl)ethyl]-1H-benzim idazole-6-carboxylic acid] |  | 55 | 1700 |  | 71 | 99
Cn1c(CN2CCC(c3cccc(OCc4ccc(Cl)cc4F)n3)CC2)nc2cnc(C(=O)O)cc21 [Example 2A-03, 2-((4-(6-((4-Chloro-2-fluorobenzyl)oxy)pyridin-2-yl)piperidin-1-yl)methyl)-1-methyl-1H-imidazo[4,5-c]pyridine-6-carboxylic acid] |  | 150 | 1200 |  | 74 | 44
C[C@H]1CN(c2cccc(OCc3ccc(C#N)cc3F)n2)CCN1Cc1nc2ccc(C(=O)O)cc2n1CC1CCCO1 (single isomer, unassigned; diastereomer 2) [Example 14A-12] |  | 1.4 | 20 |  |  | 
Cn1ncnc1Cn1c(CN2CCC(c3cccc(OCc4ccc(Cl)cc4F)n3)CC2)nc2ccc(C(=O)O)cc21 [Example 11A-33, 2-[(4-{6-[(4-chloro-2-fluorobenzyl)oxy]pyridin-2-yl}piperidin-1-yl)methyl]-1-[(1-methyl-1H-1,2,4-triazol-5yl)methyl]-1H-benzimidazole-6-carboxylic acid] |  | 96 | 1400 |  | 86 | 94
N#Cc1ccc(COc2cccc(C3CCN(Cc4nc5ccc(C(=O)O)cc5n4CC4CCCO4)CC3)n2)cc1 (single isomer, unassigned; enantiomer 2) [Example 14A-02, 2-[(4-{6-[(4-cyanobenzyl)oxyhoyridin-2-yl}piperidin-1-yl)methyl]-1-(tetrahydrofuran-2-ylmethyl)-1H-benzimidazole-6-carboxylic acid,enantiomer 2] |  | 94 | 1500 | 69 |  | 
COCCn1c(CN2CCN(c3ccc(F)c(OCc4ccc(Cl)cc4F)n3)C[C@@H]2C)nc2ccc(C(=O)O)cc21 [Example 1A-07, 2-{[(2S)-4-{6-[(4-chloro-2-fluorobenzyl)oxy]-5-fluoropyridin-2-yl}-2-methylpiperazin-1-yl]methyl}-1-(2-methoxyethyl)-1H-benzimidazole-6-carboxylic acid] |  | 3.9 | 45 |  | 82 | 82
C[C@H]1CN(c2cccc(OCc3ccc(C#N)cc3F)n2)CCN1Cc1nc2ccc(C(=O)O)cc2n1Cc1cncn1C [Example 10A-25] |  | 1.7 | 41 |  | 82 | 99
Cn1cncc1Cn1c(CN2CCC(c3cccc(OCc4ccc(C#N)cc4F)n3)CC2)nc2ccc(C(=O)O)nc21 [Example 10A-76] |  | 2.9 | 51 |  | 79 | 95
